In PubChem BioAssay AID256 (DTP/NCI, 2004):
Where “and” joins values, the source holds several entries; their conditions need not be identical. Identical values can stand only once. Toxic doses and inconclusive results are not listed. The calls were made as follows: active = survival T/C of 150% or more; inactive = T/C below 125% in these data.

System: CD2F1 mice, L1210 leukemia ip, survival T/C
Test: NCI In Vivo Anticancer Drug Screen. Data for tumor model L1210 Leukemia (intraperitoneal) in CD2F1 (CDF1) mice
Conditions: endpoint: mean survival time, higher = longer survival
Method in brief: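 Compound-dosed mice with transplantable tumor versus matched vehicle controls; endpoint ratio T/C reported.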

[1] = dose: 100.0 mg/kg/injection, schedule: Q04DX003 (ip), vehicle: saline
[2] = dose: 25.0 mg/kg/injection, schedule: Q04DX003 (ip), vehicle: saline with Tween-80
[3] = dose: 50.0 mg/kg/injection, schedule: Q04DX003 (ip), vehicle: saline with Tween-80
[4] = dose: 100.0 mg/kg/injection, schedule: Q04DX003 (ip), vehicle: saline with Tween-80
[5] = dose: 100.0 mg/kg/injection, schedule: Q04DX002 (ip), vehicle: saline with Tween-80
[6] = dose: 50.0 mg/kg/injection, schedule: Q01DX009 (ip), vehicle: saline with Tween-80
[7] = dose: 100.0 mg/kg/injection, schedule: Q01DX009 (ip), vehicle: saline with Tween-80
[8] = dose: 200.0 mg/kg/injection, schedule: Q01DX009 (ip), vehicle: saline with Tween-80
[9] = dose: 400.0 mg/kg/injection, schedule: Q04DX003 (ip), vehicle: saline with Tween-80
[10] = dose: 100.0 mg/kg/injection, schedule: Q01DX001 (ip), vehicle: saline
[11] = dose: 200.0 mg/kg/injection, schedule: Q01DX001 (ip), vehicle: saline
[12] = dose: 400.0 mg/kg/injection, schedule: Q01DX001 (ip), vehicle: saline
[13] = dose: 200.0 mg/kg/injection, schedule: Q04DX003 (ip), vehicle: saline with Tween-80

Measured: T/C

C=CC1CC2C=CC1C2 (configuration not stated) (tested in a mixture with another compound)
inactive: dose: 80.5 mg/kg/injection, schedule: Q01DX009 (ip), vehicle: saline with Tween-80 106 % of control | dose: 161.0 mg/kg/injection, schedule: Q01DX009 (ip), vehicle: saline with Tween-80 90 % of control

Nc1nc(N)c2c(Cl)c(CNc3ccc(C(=O)NC(CC(=O)O)C(=O)O)cc3)ccc2n1 (configuration not stated)
inactive: dose: 2.0 mg/kg/injection, schedule: Q01DX001 (ip), vehicle: saline 121 % of control | dose: 2.0 mg/kg/injection, schedule: Q01DX009 (oral), vehicle: saline 94 % of control | dose: 2.0 mg/kg/injection, schedule: Q03HX024 (ip), vehicle: saline 101 % of control | dose: 2.0 mg/kg/injection, schedule: Q08DX002 (ip), vehicle: saline 104 % of control | dose: 4.0 mg/kg/injection, schedule: Q01DX001 (oral), vehicle: saline 103 % of control | dose: 4.0 mg/kg/injection, schedule: Q01DX009 (ip), vehicle: saline 120 % of control | dose: 4.0 mg/kg/injection, schedule: Q01DX009 (sc), vehicle: saline 98 % of control | dose: 8.0 mg/kg/injection, schedule: Q01DX009 (oral), vehicle: saline 118 % of control | dose: 8.0 mg/kg/injection, schedule: Q03HX024 (ip), vehicle: saline 95 % of control | dose: 16.0 mg/kg/injection, schedule: Q01DX001 (oral), vehicle: saline 120 % of control | dose: 16.0 mg/kg/injection, schedule: Q01DX009 (ip), vehicle: saline 88 % of control | dose: 16.0 mg/kg/injection, schedule: Q01DX009 (sc), vehicle: saline 87 % of control | dose: 16.0 mg/kg/injection, schedule: Q03HX016 (ip), vehicle: saline 98 % of control | dose: 32.0 mg/kg/injection, schedule: Q01DX009 (oral), vehicle: saline 93 % of control | dose: 512.0 mg/kg/injection, schedule: Q01DX001 (sc), vehicle: saline 96 % of control

CCOC1=NC(C)(C)CC(C)O1 (configuration not stated)
inactive: dose: 25.0 mg/kg/injection, schedule: Q01DX009 (ip), vehicle: saline 109 % of control | dose: 50.0 mg/kg/injection, schedule: Q01DX009 (ip), vehicle: saline 109 % of control | dose: 100.0 mg/kg/injection, schedule: Q01DX009 (ip), vehicle: saline 103 % of control | [1] 97 % of control

OC(COc1ccccc1Cl)COc1ccccc1Cl
inactive: dose: 100.0 mg/kg/injection, schedule: Q04DX003 (ip), vehicle: saline + alcohol 101 % of control | dose: 200.0 mg/kg/injection, schedule: Q04DX003 (ip), vehicle: saline + alcohol 95 % of control | dose: 400.0 mg/kg/injection, schedule: Q04DX003 (ip), vehicle: saline + alcohol 95 % of control

Cc1c2cnccc2c(C)c2c1c1ccccc1n2CCCCCCNCc1ccccc1
inactive: [2] 95 % of control | [3] 89 % of control | [4] 95 % of control

N#CSC/C(Br)=C/Br
inactive: dose: 6.25 mg/kg/injection, schedule: Q04DX003 (ip), vehicle: saline with Tween-80 97 % of control | dose: 12.5 mg/kg/injection, schedule: Q04DX003 (ip), vehicle: saline with Tween-80 103 % of control | [2] 92 % of control

C[PH+](CC[PH+](c1ccccc1)c1ccccc1)c1ccccc1.[C-]#[O+].[C-]#[O+].[C-]#[O+].[C-]#[O+].[Mo] (configuration not stated)
inactive: dose: 25.0 mg/kg/injection, schedule: Q04DX002 (ip), vehicle: saline with Tween-80 93 % of control | dose: 50.0 mg/kg/injection, schedule: Q04DX002 (ip), vehicle: saline with Tween-80 89 % of control | [5] 89 % of control

N#CCCNCCNCCC#N
inactive: [6] 96 % of control | [7] 104 % of control | [8] 104 % of control

CC(=O)S[C@@H]1CC2=CC(=O)CC[C@]2(C)[C@H]2CC[C@@]3(C)[C@@H](CC[C@@]34CCC(=O)O4)[C@H]12
inactive: dose: 100.0 mg/kg/injection, schedule: Q04DX003 (sc), vehicle: steriod suspending solution 95 % of control | dose: 200.0 mg/kg/injection, schedule: Q04DX003 (sc), vehicle: steriod suspending solution 97 % of control | dose: 400.0 mg/kg/injection, schedule: Q04DX003 (sc), vehicle: steriod suspending solution 98 % of control

COc1ccccc1OC(=O)Nc1ccc(C)c([N+](=O)[O-])c1
inactive: [2] 96 % of control | [3] 93 % of control | [4] 98 % of control and 103 % of control | [9] 97 % of control

C[Si](C)(C)n1nnn(-c2ccccc2)c1=O
inactive: dose: 12.5 mg/kg/injection, schedule: Q01DX009 (ip), vehicle: saline with Tween-80 97 % of control and 100 % of control | dose: 25.0 mg/kg/injection, schedule: Q01DX009 (ip), vehicle: saline with Tween-80 97 % of control | [6] 97 % of control and 101 % of control | [7] 100 % of control and 103 % of control | [8] 100 % of control and 103 % of control | dose: 400.0 mg/kg/injection, schedule: Q01DX009 (ip), vehicle: saline with Tween-80 101 % of control

CC(C)NCCO
inactive: dose: 75.0 mg/kg/injection, schedule: Q01DX001 (ip), vehicle: saline 98 % of control | [10] 97 % of control | dose: 150.0 mg/kg/injection, schedule: Q01DX001 (ip), vehicle: saline 100 % of control | [11] 97 % of control

Cc1nc(/N=C(/N)N(C)C)[nH]c(=O)c1C
inactive: [10] 97 % of control | [11] 103 % of control | [12] 109 % of control

Cc1cc(=O)[nH]c(Nc2ccccc2)n1
inactive: [4] 105 % of control | [13] 97 % of control | [9] 88 % of control

COC(=O)c1ccc(-n2cc(C(=O)OC)c([N+]#N)c2[O-])cc1
inactive: [5] 107 % of control | dose: 200.0 mg/kg/injection, schedule: Q04DX002 (ip), vehicle: saline with Tween-80 88 % of control | [13] 93 % of control | dose: 400.0 mg/kg/injection, schedule: Q04DX002 (ip), vehicle: saline with Tween-80 107 % of control | [9] 93 % of control

CC(C)CC([N+](C)(C)C)P(=O)([O-])O (configuration not stated)
inactive: [1] 101 % of control | dose: 200.0 mg/kg/injection, schedule: Q04DX003 (ip), vehicle: saline 95 % of control | dose: 400.0 mg/kg/injection, schedule: Q04DX003 (ip), vehicle: saline 98 % of control

[Cl][Pt+2][Cl].[NH-]c1ccc([N+](=O)[O-])cc1[NH-]
inactive: dose: 2.5 mg/kg/injection, schedule: Q01DX009 (ip), vehicle: saline with Tween-80 103 % of control | dose: 5.0 mg/kg/injection, schedule: Q01DX009 (ip), vehicle: saline with Tween-80 102 % of control | dose: 10.0 mg/kg/injection, schedule: Q01DX009 (ip), vehicle: saline with Tween-80 103 % of control | dose: 20.0 mg/kg/injection, schedule: Q01DX009 (ip), vehicle: saline with Tween-80 105 % of control and 107 % of control | dose: 40.0 mg/kg/injection, schedule: Q01DX009 (ip), vehicle: saline with Tween-80 106 % of control and 111 % of control | dose: 80.0 mg/kg/injection, schedule: Q01DX009 (ip), vehicle: saline with Tween-80 96 % of control

C[n+]1ccccc1C#N
inactive: dose: 25.0 mg/kg/injection, schedule: Q01DX009 (ip), vehicle: saline sonified 102 % of control | dose: 50.0 mg/kg/injection, schedule: Q01DX009 (ip), vehicle: saline sonified 102 % of control | [4] 95 % of control

OCC(O)C1OC(OCc2ccccc2)C(O)C(O)C1O (configuration not stated)
inactive: [10] 101 % of control | [11] 98 % of control | [12] 98 % of control

COc1ccc(C(=O)C(Br)Br)cc1OC
inactive: dose: 3.13 mg/kg/injection, schedule: Q04DX002 (ip), vehicle: saline with Tween-80 112 % of control | dose: 6.25 mg/kg/injection, schedule: Q04DX002 (ip), vehicle: saline with Tween-80 100 % of control | dose: 12.5 mg/kg/injection, schedule: Q04DX002 (ip), vehicle: saline with Tween-80 100 % of control
